Patent US12011499B2, “Peptides and compositions for use in cosmetics” (LIPOTRUE, S.L., priority 2020, dated 2024)

How the values were obtained:
fibrillin-1 [1] = assay: Modulation of fibrillin-1 synthesis in HDFa cell culture (sandwich ELISA); assay type: cell-based, human; conditions: 48 hours
Method: Modulation of fibrilin-1 synthesis by Ac-SEQ ID NO: 3-NH2 peptide (synthesized in accordance with examples 1-3 and 5) was evaluated in vitro using HDFa.
HDFa were seeded in 96-well plates at a density of 1×10^4 cells/well and they were put in contact with three non-cytotoxic concentrations of Ac-SEQ ID NO: 3-N H2 peptide: 0.01 mg/ml, 0.05 mg/ml and 0.1 mg/ml for 48 hours. Untreated cells were included as basal control. At the end of the monitored experiment, cell culture media were extracted from all wells and stored at −80° C. Modulation on fibrillin-1 levels was analyzed by means of sandwhich ELISA following manufacturer's instructions.

[2] = tested on: Metalloproteinase-3 (MMP3); assay: Gene expression modulation in HDFa (RTqPCR), MMP3; assay type: cell-based, human; conditions: 0.1 mg/ml, 6 hours
Method: (§1) Changes in gene expression levels are represented as a positive or negative fold-change with regard to the basal control (untreated cells). Bars from top to bottom in the y axis refer to: Metalloproteinase-1 (MMP1), Metalloproteinase-3 (MMP3), Fibronectin 1 (FN1), Fibrillin-1 (FBN1) and Versican (VCAN) genes, and x axis refers to fold change vs basal control.
(§2) Modulation of gene expression by Ac-SEQ ID NO: 3-NH2 peptide (synthesized in accordance with examples 1-3 and 5) on HDFa was evaluated in vitro.
(§3) Briefly, HDFa cells were seeded in duplicate in 6-well plates at a density of 4×10^5 cells/well and they were maintained at standard culture conditions (37° C., 95% humidity, 5% CO2) for 24 hours. Then, cells were treated with Ac-SEQ ID NO: 3-NH2 peptide at the non-cytotoxic concentration of 0.05 and 0.1 mg/ml for additional 6 hours. Untreated cells were used as basal control. […] RNA was then quantified by nanodrop, adjusted in concentration and processed for retrotranscription to cDNA using a commercially available kit (High-Capacity cDNA Reverse Transcription kit—Thermofisher Scientific, USA). Resulting cDNA was used to perform a RTqPCR (Real Time Quantitative Polymerase Chain Reaction) using taqman technology and a panel of probes designed to target specific genes related to extracellular matrix components and structure.

Fibronectin 1 (FN1) = assay: Gene expression modulation in HDFa (RTqPCR), FN1; assay type: cell-based, human; conditions: 0.1 mg/ml, 6 hours
Method: as §1, §2, §3

versican [3] = assay: Modulation of versican synthesis on human skin explants (immunostaining); conditions: 0.005 mg/ml in cosmetic formulation, topical on days 0, 2, 4 and 7, explants collected day 9
Method: The effect of Ac-SEQ ID NO: 3-NH2 peptide (synthesized in accordance with examples 1-3 and 5) on versican production was evaluated on human skin explants from a donor.
Briefly, skin explants were obtained from a volunteer donor undergoing a plastic surgery procedure. Skin excess was donated for the present study. Skin explants were treated with a cosmetic formulation containing 1% (m/v) from a stock at 0.05% (m/v) of Ac-SEQ ID NO: 3-NH2 (effective final concentration of Ac-SEQ ID NO: 3-NH2, 0.005 mg/ml). On days 0, 2, 4 and 7, the tested product was topically applied on the basis of 2 μl per cm^2 of skin explant and spread using a small spatula.
On day 9, 3 explants from each condition were collected and fixed in a buffered formalin solution. After fixation for 24 hours in buffered formalin, samples were dehydrated and impregnated and embedded in paraffin. 5-μm-thick sections were made using a Leica RM 2125 Minot-type microtome, and the sections were mounted on Superfrost® histological glass slides. The microscopical observations were performed using a Leica DMLB or Olympus BX43 microscope. Pictures were digitized with a numeric DP72 Olympus camera with CellD storing software.
The immunostaining was performed using an automated slide-processing system (Dako, AutostainerPlus). The staining was assessed by microscopical observation and image analysis.

[4] = tested on: Metalloproteinase-1 (MMP1); assay: Gene expression modulation in HDFa (RTqPCR), MMP1; assay type: cell-based, human; conditions: 0.1 mg/ml, 6 hours
Method: as §1, §2, §3

tropoelastin = assay: Modulation of tropoelastin synthesis in HDFa cell culture (sandwich ELISA); assay type: cell-based, human; conditions: 24 hours
Method: The potential effect of Ac-SEQ ID NO: 3-NH2 peptide (synthesized in accordance with examples 1-3 and 5) on tropoelastin synthesis was evaluated in vitro using HDFa.
HDFa were put in culture at a density of 1×10^4 cells/well in 96-well plates and incubated for 24 hours with non-cytotoxic increasing concentrations of Ac-SEQ ID NO: 3-NH2 peptide (0.01 mg/ml, 0.05 mg/ml, 0.1 mg/ml and 0.5 mg/ml). Untreated cells were included as basal control. At the end of the monitored experimental time cell culture media and cell lysates were extracted from all wells and stored at −80° C. Ex-novo synthesis of tropoelastin was measured by means of sandwich ELISA following manufacturer's instructions.

Fibrillin-1 (FBN1) = assay: Gene expression modulation in HDFa (RTqPCR), FBN1; assay type: cell-based, human; conditions: 0.05 mg/ml, 6 hours
Method: as §1, §2, §3

HDFa = assay: Cytotoxicity of tested concentrations on HDFa; assay type: cell-based, human; conditions: 0.01, 0.05, 0.1 and 0.5 mg/ml
facial skin firmness = assay: Clinical evaluation of facial skin firmness on female volunteers (Dynaskin); assay type: in vivo, human; conditions: 0.015 mg/ml in cosmetic formulation, two times per day, after 56 days, whole treated group
Method: The effect of Ac-SEQ ID NO: 3-NH2 peptide (synthesized in accordance with examples 1-3 and 5) on facial skin firmness was evaluated on 22 Caucasian female volunteers.
Briefly, volunteers applied a cosmetic formulation with 3% (m/v) from a stock at 0.05% (m/v) of Ac-SEQ ID NO: 3-NH2 (effective final concentration of Ac-SEQ ID NO: 3-NH2, 0.015 mg/ml) or without (placebo). The application regime was of two times per day during 56 days, on early morning and before bedtime. Cosmetic formulations were applied on either half of clean face in order to compare the effect of placebo and the active on the same volunteer.
On days 0, 7, 14 and 56, a Dynaskin device was used on each volunteer in order to measure the firmness quality of the skin according to three parameters: volume (mm^3), area (mm^2) and depth (mm). Dynaskin uses an air beam projection onto the cheek area causing a deformation of the skin. This deformation magnitude is measured by means of a specific software collecting data of the above three parameters for each volunteer and on each hemiface.

Versican (VCAN) = assay: Gene expression modulation in HDFa (RTqPCR), VCAN; assay type: cell-based, human; conditions: 0.05 mg/ml, 6 hours
Method: as §1, §2, §3

versican [5] = assay: Modulation of versican synthesis in HDFa cell culture (sandwich ELISA); assay type: cell-based, human; conditions: 24 hours
Method: The effect of Ac-SEQ ID NO: 3-NH2 peptide (synthesized in accordance with examples 1-3 and 5) on versican production was evaluated in vitro using human dermal fibroblasts (hereinafter, HDFa).
Briefly, HDFa cells were seeded in 96-well plates at 1×10^4 cells/well in fibroblasts growth media and maintained for 24 hours at standard culture conditions (37° C., 95% humidity, 5% CO2). After the aforementioned incubation, medium was removed and new medium containing the non-cytotoxic concentrations of Ac-SEQ ID NO: 3-NH2 peptide of: 0.01 mg/ml, 0.05 mg/ml and 0.1 mg/ml was added and incubated for 24 hours. 0.1 μM retinoic acid was included as positive control for versican stimulation and untreated cells were included as basal control. Cell culture media and cell lysate were collected from all wells at the end of the experiment and stored at −80° C. Ex-novo synthesis of versican was measured by means of sandwich ELISA following manufacturer's instructions.

fibrillin-1 [6] = assay: Modulation of fibrillin-1 synthesis on human skin explants (immunostaining); conditions: 0.005 mg/ml in cosmetic formulation, topical on days 0, 2, 4 and 7, explants collected day 9
Method: The effect of Ac-SEQ ID NO: 3-NH2 peptide (synthesized in accordance with examples 1-3 and 5) on fibrillin-1 production was evaluated on human skin explants from a donor.
Briefly, skin explants were treated with a cosmetic formulation containing 1% (m/v) from a stock at 0.05% (m/v) of Ac-SEQ ID NO: 3-N H2 (effective final concentration of Ac-SEQ ID NO: 3-N H2, 0.005 mg/ml). On days 0, 2, 4 and 7, the tested product was topically applied on the basis of 2 μl per cm^2 of skin explant and spread using a small spatula.
On day 9, 3 explants from each condition were collected and frozen at −80° C. The frozen samples were cut into 7-μm-thick sections using a Leica CM 3050 cryostat. Sections were then mounted on Superfrost® plus silanized glass slides. The microscopical observations were performed using a Leica DMLB or Olympus BX43 microscope. Pictures were digitized with a numeric DP72 Olympus camera with CellD storing software.
The nuclei were counterstained using propidium iodide. The immunostaining was performed using an automated slide-processing system (Dako, AutostainerPlus). The staining was assessed by microscopical observation and image analysis.

hyaluronic acid = assay: Modulation of hyaluronic acid synthesis in HDFa cell culture (competitive ELISA); assay type: cell-based, human; conditions: 48 hours
Method: Modulation of Hyaluronic acid production by Ac-SEQ ID NO: 3-NH2 peptide (synthesized in accordance with examples 1-3 and 5) on HDFa was evaluated in vitro.
Briefly, HDFa were seeded in 96-well plates at a density of 1×10^4 cells/well and, then, incubated with non-cytotoxic concentrations of Ac-SEQ ID NO: 3-NH2 peptide, this is 0.01 mg/ml, 0.05 mg/ml, 0.1 mg/ml and 0.5 mg/ml, for 48 hours. 0.1 μM retinoic acid was included as positive control and untreated cells were included as basal control. At the end of the experiment, cell culture media were extracted from all wells and stored at −80° C. Ex-novo synthesis of hyaluronic acid was measured by means of competitive ELISA following manufacturer's instructions.

## Ac-ALHKVK-NH2 [Ac-SEQ ID NO: 3-NH2, Ac-Ala-Leu-His-Lys-Val-Lys-NH2]
fibrillin-1 [1]; 0.01 mg/ml
  increase in fibrillin-1 synthesis compared to basal control: 18%
fibrillin-1 [1]; 0.05 mg/ml
  increase in fibrillin-1 synthesis compared to basal control: 30%
fibrillin-1 [1]; 0.10 mg/ml
  increase in fibrillin-1 synthesis compared to basal control: 41%
[2]
  MMP3 gene expression, fold change vs basal control: −1.20
Fibronectin 1 (FN1)
  Fibronectin 1 gene expression, fold change vs basal control: 1.41
Versican [3]
  increase in skin surface occupied by versican protein compared to basal control: 29%
[4]
  MMP1 gene expression, fold change vs basal control: −1.33
tropoelastin; 0.01 mg/ml
  increase in tropoelastin synthesis compared to basal control: 3%
tropoelastin; 0.05 mg/ml
  increase in tropoelastin synthesis compared to basal control: 11%
tropoelastin; 0.10 mg/ml
  increase in tropoelastin synthesis compared to basal control: 20%
tropoelastin; 0.50 mg/ml
  increase in tropoelastin synthesis compared to basal control: 31%
Fibrillin-1 (FBN1)
  Fibrillin 1 gene expression, fold change vs basal control: 1.55
HDFa
  cytotoxicity on HDFa: non-cytotoxic
Facial skin firmness
  decrease in area of cheek deformation versus initial time: 7%
  decrease in depth of cheek deformation versus initial time: 14.5%
  decrease in volume of cheek deformation versus initial time: 20%
Versican (VCAN)
  Versican gene expression, fold change vs basal control: 1.22
Versican [5]; 0.01 mg/ml
  increase in versican synthesis compared to basal control: 24%
Versican [5]; 0.05 mg/ml
  increase in versican synthesis compared to basal control: 35%
Versican [5]; 0.10 mg/ml
  increase in versican synthesis compared to basal control: 62%
fibrillin-1 [6]
  increase in skin surface occupied by fibrillin-1 protein compared to basal control: 24%
Hyaluronic acid; 0.01 mg/ml
  increase in hyaluronic acid production compared to basal control: 3%
Hyaluronic acid; 0.05 mg/ml
  increase in hyaluronic acid production compared to basal control: 8%
Hyaluronic acid; 0.1 mg/ml
  increase in hyaluronic acid production compared to basal control: 10%
Hyaluronic acid; 0.5 mg/ml
  increase in hyaluronic acid production compared to basal control: 18%
